According to patent publication US20040022744A1, “Method of treating dental caries and remineralizing lesions” (priority 2001, published 2004):

Key:
[1] = tested on: microflora from primary root carious lesions (PRCL); test: Ozone effect on microflora from primary root caries ex-vivo; assay type: cell-based; conditions: for Mean ± SE of Total cfu (Log10): after 10 seconds of ozone treatment
Excerpt: Primary root carious lesions (PRCL) are a major clinical problem. The aim of this study was to establish if ozone could achieve effective microbial killing in PRCL. An ozone producing generator (Purezone Ltd., Ipswich, U.K.) was used in this ex-vivo study assessing the use of ozone on PRCL. In this study, soft PRCL requiring restoration were used as these are the most severe type of lesion found in humans. 20 freshly extracted teeth with PRCL requiring restoration were used. After plaque removal using a hand held standard fine nylon fiber sterile toothbrush with sterile water as a lubricant to cleanse the surface, each tooth was then isolated using sterile cotton wool rolls and dried using a dry sterile cotton wool roll. […] Each sample was weighed and immediately placed in 1 ml of Fastidious Anaerobe Broth (FAB). To each 1 ml of FAB containing a biopsy o carious or ozone treated carious dentine, sterile glass beads were added. They were vortexed for 30 seconds to facilitate the extraction of any micro-organisms from the carious dentine and disperse any aggregates. After decimal dilution with FAB, […] of these was spread on Fastidious Anaerobe Agar (LabM, Bury, Lancs., U.K.) supplemented with 5% (V/V) horse blood in an anaerobic chamber at 37° C. for four days. The mean±SE number of each colony type was counted and calculated.
The procedure of Example 2 was repeated except that ozonized water was applied to the lesion for 20 seconds.
The aims of these studies were to evaluate the efficiency of ozone on primary root caries and associated micro-organisms (Streptococcus sobrinus; TH 21 Streptococcus mutans; NCTC 10449). In study 1, 40 soft primary root carious lesions (PRCLs) from freshly extracted teeth were used and randomly divided into two groups to test the exposure to ozone for either 10 or 20 seconds. There was a significant (p<0.001) difference (Mean±SE) between the control samples for either 10 seconds (log10 5.91±0.15) or 20 seconds (log10 6.18±0.21) and ozone treated samples for either 10 seconds (log10 3.57±0.37) or 20 seconds (log10 3.77±0.42). In study 2, 40 sterile saliva coated glass beads were put into bijoux bottles with 3 mls of Todd Hewitt broth for control and test groups. S. sobrinus and S. mutans were inoculated and incubated anaerobically overnight. Each glass bead was washed with 2 mls of PBS. Immediately, 10 seconds of ozone was applied to the glass beads in the test groups. Subsequently, each glass bead in the test and control groups was placed in 3 mls of Todd Hewitt broth with six more sterile glass beads and were vortexed for 30 seconds. […] The number of each colony type was counted and calculated. […]

[2] = tested on: Streptococcus sobrinus; TH 21; test: Ozone on micro-organisms on saliva coated glass beads; assay type: cell-based; conditions: S. sobrinus on saliva coated glass beads, 10 seconds of ozone
Excerpt: The aims of these studies were to evaluate the efficiency of ozone on primary root caries and associated micro-organisms (Streptococcus sobrinus; TH 21 Streptococcus mutans; NCTC 10449). In study 1, 40 soft primary root carious lesions (PRCLs) from freshly extracted teeth were used and randomly divided into two groups to test the exposure to ozone for either 10 or 20 seconds. There was a significant (p<0.001) difference (Mean±SE) between the control samples for either 10 seconds (log10 5.91±0.15) or 20 seconds (log10 6.18±0.21) and ozone treated samples for either 10 seconds (log10 3.57±0.37) or 20 seconds (log10 3.77±0.42). In study 2, 40 sterile saliva coated glass beads were put into bijoux bottles with 3 mls of Todd Hewitt broth for control and test groups. S. sobrinus and S. mutans were inoculated and incubated anaerobically overnight. Each glass bead was washed with 2 mls of PBS. Immediately, 10 seconds of ozone was applied to the glass beads in the test groups. Subsequently, each glass bead in the test and control groups was placed in 3 mls of Todd Hewitt broth with six more sterile glass beads and were vortexed for 30 seconds. After decimal dilutions, […] were spread on blood agar plates supplemented with 5% (V/V) horse blood and placed in an anaerobic chamber at 37° C. for two days. The number of each colony type was counted and calculated. […]

O=[O+][O-] [ozone]
percentage of micro-organisms killed ([1]; 10 seconds of ozone, PRCL ex vivo): more than 99% | Mean ± SE of Total cfu (Log10) ([1]; soft PRCL of extracted teeth): 3.57±0.37 Log10 | Mean ± SE of Total cfu (Log10) ([1]; soft PRCL of extracted teeth, listed as Ozone): 3.57 ± 0.37 Log10 | Total cfu (log10), mean±SE ([1]; after 20 seconds of ozone treatment, soft PRCL of extracted teeth): 3.77±0.42 log10 | colony count (log10), Mean ±SE [2]: 1.09±0.36 log10
